Results as given in PMC12326976 (Antimicrobial Agents and Chemotherapy, 2025).
Bridge positions count the residues as written; N and C are the ends. Ends that are not written are not given here. I, II: the chains in the order shown.

Columns and labels:
[1] = tested on: rhinovirus A1; assay type: cell-based
[2] = tested on: A(H1N1)pdm09 virus; design: species or system BALB/c mice; conditions: mouse, in vivo
[3] = tested on: H1N1 virus; assay: Plaque reduction assay, H1N1 in MDCK cells; assay type: cell-based, influenza A/Hong Kong/415742/2009 (H1N1); conditions: virus treated with 4H30 50 µg mL^−1, then diluted to 0.05 µg mL^−1 for plaque assay, Fig. 1e
Description: The antiviral activity of peptides was measured by plaque reduction assay. Briefly, peptides were dissolved in PBS or 20% PBS. Peptides (0.2-25.0 µg mL^−1) were premixed with H1N1 virus at room temperature. After 30 min of incubation, the peptide-virus mixture was transferred to MDCK cells for infection at 37°C. At 1 hpi, infectious media were removed, and then 1% low melting agar was added to cells. Cells were fixed using 4% formalin at 2–3 dpi. […] (0.1%) was added to cells for cell staining to count viral plaques.

[4] = tested on: rhinovirus A1; assay: Anti-rhinovirus assay in cardiomyocytes (hIPSC-CMs); assay type: cell-based; conditions: 4H30 25 µg mL^−1; supernatants at 48 hpi; compared to DMEM- and P9RS-treated controls; Fig. 5d
Excerpt: Cardiomyocytes are generated from human-induced pluripotent stem cells (iPSCs) as we had previously published ([22], [23]). Initially, IMR90 iPSCs are maintained in 12-well plates pre-coated with Matrigel (Thermo Fisher Scientific, USA) using StemFlex Medium (Thermo Fisher Scientific, USA). Subsequently, differentiation into cardiomyocytes is induced with the STEMdiff Ventricular Cardiomyocyte Differentiation Kit (Stem Cell Technologies, USA). This involves the sequential addition of Supplement A from days 1 to 2, Supplement B from days 3 to 4, and Supplement C from days 5 to 8 to cardiomyocyte differentiation basal medium. From day 9 onward, cardiomyocytes are sustained in cardiomyocyte maintenance basal medium with supplement (Stem Cell Technologies, USA). Lactate purification of cardiomyocytes is performed on days 11 to 12. Standard immunofluorescence staining with α-actinin and electrophysiology analysis by the patch clamping technique was performed to confirm their cardiomyocyte phenotype. To infect the cells, Rhinovirus A1 (0.025 TCID50) was treated with or without peptide in the media for infection. […]
Fig 5 4H30 inhibited rhinovirus replication in nasal organoids and cardiomyocytes. […] Viral RNAs were measured on day 1, day 2, and day 3 post-infection. […] Viral RNAs in the cell supernatants were measured by RT-qPCR at the indicated time points. […]

[5] = tested on: HA-mediated cell-cell fusion (pH7N7-HA); conditions: 125 µg mL^−1, 293T cells, pH 5.0, Fig. 2b
[6] = tested on: MDCK cells; assay: Cytotoxicity MTT assay in MDCK cells; assay type: cell-based, canine; conditions: 24 h incubation, Fig. 1f
Description: Cytotoxicity of peptides was determined by detecting 50% cytotoxic concentration (CC50) using a tetrazolium-based colorimetric MTT assay ([27]). Cells were seeded in a 96-well cell culture plate at an initial density of 4 × 10^4 cells per well in MEM, supplemented with 10% FBS and incubated overnight. Cell culture media were removed, and then MEM supplemented with various concentrations of peptides and 1% FBS was added to each well. After 24 h incubation at 37°C, the MTT solution (5 mg mL^−1, 10 µL per well) was added to each well for incubation at 37°C for 4 h. Then, 100 µL of 10% SDS in 0.01M HCl was added to each well. After further incubation at room temperature with shaking overnight, the plates were read at OD570 using the VictorTM X3 Multilabel Reader (PerkinElmer, USA). Cell culture wells without peptides were used as the experiment control, and the medium was a blank control.

[7] = tested on: neuraminidase activity of H1N1 virus; assay: Viral neuraminidase assay (NA-STAR); assay type: biochemical, influenza H1N1 virus; conditions: 4H30 50 and 12.5 µg mL^−1, 1 h, compared to zanamivir, Fig. S3
Description: Fig. S3. […] H1N1 virus was treated with MEM, zanamivir (5 μM and 1.25 μM), and 4H30 (50 μg mL^−1and 12.5 μg mL^−1) for 1 h. The neuraminidase activity was analysed using the Invitrogen NA-STAR INFLUENZA NIRD REAGENT (Cat^# 4374348). Data are presented as mean ± SD of indicated biological samples.

[8] = target: Influenza HA (Influenza A virus, UniProt C3W5S1); assay: ELISA binding assay, HA; conditions: 4H30 1 µg coated, HA 100 ng, anti-His antibody, Fig. 2a
Chain of Influenza HA (C3W5S1 entry or part of it, added parts left off): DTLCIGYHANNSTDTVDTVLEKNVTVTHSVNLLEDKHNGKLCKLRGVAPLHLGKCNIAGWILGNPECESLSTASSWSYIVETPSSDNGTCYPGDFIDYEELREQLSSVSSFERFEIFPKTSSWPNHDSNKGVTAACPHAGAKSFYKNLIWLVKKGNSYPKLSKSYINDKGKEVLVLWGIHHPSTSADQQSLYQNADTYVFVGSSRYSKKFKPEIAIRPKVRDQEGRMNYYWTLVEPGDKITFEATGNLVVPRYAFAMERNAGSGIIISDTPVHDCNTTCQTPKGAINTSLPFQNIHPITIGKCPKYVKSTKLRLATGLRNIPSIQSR
Description: Peptides (1.0 µg per well) were dissolved in H2O. Influenza HA, NA (Sino, Cat^# 11058-V07B), or LDLR (Sino, Cat^# 10231-H081-50, 100 ng) dissolved in PBS was coated onto ELISA plates, incubated at 4°C overnight, and blocked with BSA at 4°C overnight. HA or VP1 was added to wells for binding and then determined by incubation with goat anti-His-HRP (Invitrogen, Cat^# R93125, 1: 2,000) at 37°C for 30 min. The reaction was developed by adding 100 µL of the TMB single solution (Life Technologies, Cat^# 002023) for 15 min at 37°C and stopped with 50 µL of 1 M H2SO4. Readings were obtained in an ELISA plate reader (Victor 1420 Multilabel Counter; PerkinElmer) at 450 nm.

## I: GAICHPVFCPRRYKQIGTCGLPGTKCCKKPKK / II: GAICHPVFCPRRYKQIGTCGLPGTKCCKKPK / III: GAICHPVFCPRRYKQIGTCGLPGTKCCKKP / IV: GAICHPVFCPRRYKQIGTCGLPGTKCCKKP (amide I:31-IV:C, I:32-II:C, II:31-III:C; cysteines drawn unpaired) [4H30]
[1]
  rhinovirus entry: blocked rhinovirus entry on the cell membrane
[2]
  survival of mice after lethal H1N1 challenge (protected mice): 5/6
[2]; 0.5 mg/kg
  body weight loss of H1N1-infected mice: significantly reduced body weight loss
  viral loads in the lungs on day 2 post-infection: significantly inhibited H1N1 viral replication in mouse lungs
[3]
  antiviral activity after treating virus and 1,000-fold dilution: displayed significant antiviral activity against the virus
[4]
  rhinovirus replication in hIPSC-CMs: significantly inhibited viral replication in hIPSC-CMs
[5]
  inhibition of HA-mediated cell-cell fusion induced by low pH: did not effectively block HA-mediated cell-cell fusion
[6]
  cytotoxicity in MDCK cells: did not show noticeable toxicity in MDCK cells
[7]
  effect on neuraminidase activity: did not affect neuraminidase activity
[8]
  binding to HA protein: bound to HA protein
